Reference: patent US20010055590A1, “Method for enhancing myoblast migration and invasion in the context of gene therapy” (priority 1999, published 2001)

B1: purified human plasmin (protein, UniProt P00747 20-580; P00747 581-810, looked up)
Plasmin heavy chain A: EPLDDYVNTQGASLFSVTKKQLGAGSIEECAAKCEEDEEFTCRAFQYHSKEQQCVIMAENRKSSIIIRMRDVVLFEKKVYLSECKTGNGKNYRGTMSKTKNGITCQKWSSTSPHRPRFSPATHPSEGLEENYCRNPDNDPQGPWCYTTDPEKRYDYCDILECEEECMHCSGENYDGKISKTMSGLECQAWDSQSPHAHGYIPSKFPNKNLKKNYCRNPDRELRPWCFTTDPNKRWELCDIPRCTTPPPSSGPTYQCLKGTGENYRGNVAVTVSGHTCQHWSAQTPHTHNRTPENFPCKNLDENYCRNPDGKRAPWCHTTNSQVRWEYCKIPSCDSSPVSTEQLAPTAPPELTPVVQDCYHGDGQSYRGTSSTTTTGKKCQSWSSMTPHRHQKTPENYPNAGLTMNYCRNPDADKGPWCFTTDPSVRWEYCNLKKCSGTEASVVAPPPVVLLPDVETPSEEDCMFGNGKGYRGKRATTVTGTPCQDWAAQEPHRHSIFTPETNPRAGLEKNYCRNPDGDVGGPWCYTTNPRKLYDYCDVPQCAAPSFDCGKPQVEPKKCPGR
Plasmin light chain B: VVGGCVAHPHSWPWQVSLRTRFGMHFCGGTLISPEWVLTAAHCLEKSPRPSSYKVILGAHQEVNLEPHVQEIEVSRLFLEPTRKDIALLKLSSPAVITDKVIPACLPSPNYVVADRTECFITGWGETQGTFGAGLLKEAQLPVIENKVCNRYEFLNGRVQSTELCAGHLAGGTDSCQGDSGGPLVCFEKDKYILQGVTSWGLGCARPNKPGVYVRVSRFVTWIEGVMRNN
modifications: Plasmin

Experiments:
mouse myoblasts = test: In vitro mouse myoblast migration assay (gelatin-coated membrane); type: cell-based; conditions: 12 hours; for effect on bFGF-stimulated mouse myoblast migration: 0.05 units/ml plasmin or 50 mM NAC in top chamber; for effect on migration stimulated by bFGF and fibronectin in combination: 0.05 units/ml plasmin or 50 mM NAC; for stimulation of mouse myoblast migration over the DMEM control: 25 ng/ml bFGF, 50 μg/ml fibronectin, 10 ng/ml HGF, 2 ng/ml TGF-β1; for effect on mouse myoblast migration: stimulant in bottom chamber
Description: Mouse myoblasts were previously isolated from hind limb muscles of 4-6 week old severe combined immunodeficient (SCID) mice and clonally purified from contaminating fibroblasts (Yao et al. “Primary myoblast-mediated gene: transfer: persistent expression of human factor IX in mice” Gene Therapy 1:99-107, 1994). Myoblasts (approximately 1×10^6 cells) were plated on 6 cm tissue culture plates coated with 0.5% gelatin (Sigma, St. Louis, Mo.) and grown in growth medium consisting of Dulbecco's Modified Eagle Medium (DMEM) (Gibco BRL, Gaithersburg Md.) supplemented with 20% fetal bovine serum (FBS; Gibco) and 0.5% chick embryo extract (CEE; Gibco). All animal studies were carried out following the institutional guidelines for ethical animal use. Human myoblasts were isolated using trypsin digestion from abdominal wall or chest wall muscle biopsies, and surgery. Written consent was obtained from all patients prior to biopsy isolation as approved by the University Hospital's Institutional Regulation Board on the use of human subjects. Cells were preplated on uncoated plates for 1 hour to separate muscle fibroblasts. […] All experiments were done with myoblasts of passage 7 or lower. Myoblast migration and invasion were examined using a commercially available in vitro cell migration and invasion assay kit (Biocoat, Becton Dickinson, Franklin Lakes, N.J.) as described by Albini et al. (A rapid in vitro assay for quantitating the invasive potential of tumor cells Cancer Res 47:3239-3245, 1987). Myoblasts were grown to approximately 70% confluence, rinsed three times in serum-free DMEM, followed by incubation for 3 hours in 0.2% bovine serum albumin (BSA) in DMEM to eliminate the effects of serum. Cells were then trypsinized and collected by centrifugation. Cells were resuspended in serum-free DMEM at a density of 1×10^5 cells/ml, and 0.5 ml aliquots of cell suspension were added to the top chamber. […] Fibronectin subfragments of 45 KDa (Sigma), 120 kDa (Gibco), 63 kDa (Retronectin, Takara) and 70 KDa (Sigma) were used alone or in combination. […] For migration studies, the upper chamber membrane was coated with 0.1% gelatin and cells were allowed to migrate for 8-12 hours, while for invasion studies, the upper membrane was coated with 5 μl of Matrigel® diluted to 5 mg/ml in sterile phosphate buffered saline (PBS) and cells were allowed to invade for 24 hours. The top side of the insert membrane was scrubbed free of cells using a cotton swab and the bottom side was stained using the Leukostat-I system (Fisher Diagnostics, Pittsburgh, Pa.). The number of cells per field was counted in 10 randomly selected fields and averaged for each condition. To evaluate the effects of inactivation or activation of MMPs, aliquots (0.05 units in 50 μl PBS) of purified human plasmin (Sigma) or 50 mM N-acetyl cysteine (NAC; Sigma) were added with the cells to the top chamber of the migration assay and growth factor was added to the bottom. […] Myoblasts (5×10^4 cells/well) were stimulated with various growth factors and fibronectin, and their ability to migrate or invade through a Matrigel® barrier (panel a, mouse myoblast migration at 12 hours; panel b, mouse myoblast invasion at 24 hours). […] Bars represent mean ±SEM from a minimum of 3 separate experiments. […] Further studies were done to elucidate the role of MMPs in cytokine-mediated mouse myoblast migration.

human myoblasts = test: In vitro human myoblast migration assay; type: cell-based; conditions: for effect on stimulated human myoblast migration: plasmin or NAC, FIG. 7c, migration induced by PDGF-BB; for stimulation of human myoblast migration over the BSA control level: 12 hour time point
Description: Mouse myoblasts were previously isolated from hind limb muscles of 4-6 week old severe combined immunodeficient (SCID) mice and clonally purified from contaminating fibroblasts (Yao et al. “Primary myoblast-mediated gene: transfer: persistent expression of human factor IX in mice” Gene Therapy 1:99-107, 1994). Myoblasts (approximately 1×10^6 cells) were plated on 6 cm tissue culture plates coated with 0.5% gelatin (Sigma, St. Louis, Mo.) and grown in growth medium consisting of Dulbecco's Modified Eagle Medium (DMEM) (Gibco BRL, Gaithersburg Md.) supplemented with 20% fetal bovine serum (FBS; Gibco) and 0.5% chick embryo extract (CEE; Gibco). All animal studies were carried out following the institutional guidelines for ethical animal use. Human myoblasts were isolated using trypsin digestion from abdominal wall or chest wall muscle biopsies, and surgery. Written consent was obtained from all patients prior to biopsy isolation as approved by the University Hospital's Institutional Regulation Board on the use of human subjects. Cells were preplated on uncoated plates for 1 hour to separate muscle fibroblasts. Approximately 95% of the cells were desmin-positive following immunohistochemical staining of representative culture samples, and were capable of differentiation into myotubes, indicating high purity of the myoblast preparation. All experiments were done with myoblasts of passage 7 or lower. Myoblast migration and invasion were examined using a commercially available in vitro cell migration and invasion assay kit (Biocoat, Becton Dickinson, Franklin Lakes, N.J.) as described by Albini et al. (A rapid in vitro assay for quantitating the invasive potential of tumor cells Cancer Res 47:3239-3245, 1987). Myoblasts were grown to approximately 70% confluence, rinsed three times in serum-free DMEM, followed by incubation for 3 hours in 0.2% bovine serum albumin (BSA) in DMEM to eliminate the effects of serum. Cells were then trypsinized and collected by centrifugation. Cells were resuspended in serum-free DMEM at a density of 1×10^5 cells/ml, and 0.5 ml aliquots of cell suspension were added to the top chamber. […] Fibronectin subfragments of 45 KDa (Sigma), 120 kDa (Gibco), 63 kDa (Retronectin, Takara) and 70 KDa (Sigma) were used alone or in combination. The growth factor concentrations used were those which could produce maximal effects as examined in the present studies by extending from values reported by Bischoff (“Chemotaxis of skeletal muscle satellite cells” Devel. Dynamics 208:505-515, 1997). For migration studies, the upper chamber membrane was coated with 0.1% gelatin and cells were allowed to migrate for 8-12 hours, while for invasion studies, the upper membrane was coated with 5 μl of Matrigel® diluted to 5 mg/ml in sterile phosphate buffered saline (PBS) and cells were allowed to invade for 24 hours. The top side of the insert membrane was scrubbed free of cells using a cotton swab and the bottom side was stained using the Leukostat-I system (Fisher Diagnostics, Pittsburgh, Pa.). The number of cells per field was counted in 10 randomly selected fields and averaged for each condition. To evaluate the effects of inactivation or activation of MMPs, aliquots (0.05 units in 50 μl PBS) of purified human plasmin (Sigma) or 50 mM N-acetyl cysteine (NAC; Sigma) were added with the cells to the top chamber of the migration assay and growth factor was added to the bottom. […] The effects of growth factors on human myoblast migration in vitro (12 hour time point) were somewhat different from those observed with mouse myoblasts. […] The greatly elevated level of migration of human myoblasts was due in part to the extremely low migration in the BSA control (basal level) of human cells compared to mouse cells. The largest effects on human myoblast migration were produced by fibronectin (100-fold), PDGF (about 62-fold), TGF-β (about 54-fold) and HGF (46-fold) over the control level, while bFGF produced only a 37-fold stimulation (FIG. 7a). […]

| Molecule | effect on migration stimulated by combination of bFGF and plasmin (mouse myoblasts; 50 mM NAC) | effect on bFGF-stimulated mouse myoblast migration (mouse myoblasts) | effect on migration stimulated by bFGF and fibronectin in combination (mouse myoblasts) | effect on stimulated human myoblast migration (human myoblasts) | stimulation of mouse myoblast migration over the DMEM control (mouse myoblasts) [fold] | effect on mouse myoblast migration (mouse myoblasts) | stimulation of human myoblast migration over the BSA control level (human myoblasts) [fold] | effect alone on mouse myoblast migration compared to the control (mouse myoblasts; 0.05 units/ml plasmin, no growth factor) |
| --- | --- | --- | --- | --- | --- | --- | --- | --- |
| CC(=O)N[C@@H](CS)C(=O)O [NAC, N-acetyl cysteine, reference compound] | dramatic reduction | efficiently reduced the effect of bFGF on mouse myoblast migration to a level similar to the BSA control | attenuated the effects | greatly reduced | – | – | – | – |
| bovine basic fibroblast growth factor [bFGF] | – | – | – | – | 12 | stimulated migration of mouse myoblasts to various degrees | 37 | – |
| human serum fibronectin | – | – | – | – | 14 | stimulated migration of mouse myoblasts to various degrees | 100 | – |
| B1 | – | increased the migrational response to bFGF by nearly twofold | attenuated the effect | significantly increased | – | – | – | slightly negative effect |
